# Source: US9493836B2, “Method for diagnosing hematological disorders” (UNIVERSITE FRANCOIS RABELAIS DE TOURS, priority 2010, dated 2016)
# “Also recorded” adds a separate entry of the source.
# Assays:
# AML and high grade MDS = settings: background statement; cited from earlier work
# AML sample = test: In vitro treatment of an AML sample with a demethylating agent; expression level of genes SEQ ID NO: 1-24 by qRT-PCR (oxydogram); assay type: cell-based, human; settings: AML sample of one patient treated in vitro, compared with same untreated AML sample (FIG. 8)
# Source text: Three micrograms of total RNA from each sample were reverse transcribed using the SuperScript® VILO™ cDNA Synthesis kit (Invitrogen) according to the protocol of the supplier. The relative quantification of gene expression was done by real-time PCR on the LightCycler® 480 microwell plate-based cycler platform (Roche Applied Science) using Universal ProbeLibrary assays designed with the ProbeFinder software (Roche Applied Science, www.roche-applied-science.com/sis/rtper/upl/ezhome.html). Primers were purchased from Invitrogen and Universal ProbeLibrary probes from Roche Applied Science. The nucleotide sequences of the primers and probes of each target are shown in Table A. All targets were concomitantly analyzed. qRT-PCR reactions were carried out in a total volume of 10 μL on 20 ng of cDNA using LightCycler® 480 Probes Master (Roche Applied Science). The LightCycler® 480 was programmed to an initial denaturation (95° C., 10 min) following by 45 cycles of 10 sec at 95° C., 30 sec at 60° C., 1 sec at 72° C. and a final cooling step at 40° C. for 10 sec. All reactions were run in triplicate, and average values were used for quantification. Results were analyzed by the relative quantification method (ΔΔCT=ΔCTpatient−ΔCTreference) using the Cycle threshold (CT) values determined with the LightCycler® 480 software (release 1.5.0) from Roche Applied Science. […]
Structure (SMILES),share of AML and high grade MDS sensitive to the agents' effects (AML and high grade MDS),modulation of the expression level (ratio) of the genes SEQ ID NO: 1-24 (AML sample)
"Nc1ncn([C@H]2C[C@H](O)[C@@H](CO)O2)c(=O)n1 [decitabine, 5-azadeoxycytidine]",about 30%,
"Nc1ncn([C@@H]2O[C@H](CO)[C@@H](O)[C@H]2O)c(=O)n1 [azacytidine, 5-azacytidine]",about 30%,can modulate the expression ratio of the genes SEQ ID NO: 1-24; also recorded: modify the expression level of the genes
